Results reported in ChEMBL document CHEMBL1201862, “PubChem BioAssay data set” (2004).
The source made the active and inactive calls.

What was measured:
[1] = inhibitors of firefly luciferase expression or activity, dose response, H4 neuroglioma cells, luminescence (AID 1990); assay type: functional, cell-based
[2] = Luminescence Cell-Based Dose Response HTS to Identify Inhibitors of 5'UTR Stem-Loop Driven Prion Protein mRNA Translation in H4 Neuroglioblastoma Cells. [Related pubchem assays: 1827 (Project Summary), 1813 (Primary HTS)]; assay type: functional
[3] = inhibitors of SNCA 5'UTR-driven reporter translation, confirmation, H4 neuroglioma cells, luminescence (AID 1988); assay type: functional, cell-based
[4] = Shn3 3'UTR reporter inhibitors, dose response, cell-based, Clone20 osteoblasts, firefly luciferase, cherry-picked (AID 624132); assay type: functional;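 also: firefly luciferase luminescence from reporter carrying the Shn3 3'UTR in osteoblasts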
[5] = target: T1, Carboxy-terminal domain RNA polymerase II polypeptide A small phosphatase 1 (Homo sapiens, UniProt Q9GZU7); test: inhibitors of CTDSP1, concentration-response testing, biochemical assay, absorbance-based, actives from ultra-high-throughput screening (AID 540297); assay type: functional
T1 sequence (Q9GZU7 whole entry): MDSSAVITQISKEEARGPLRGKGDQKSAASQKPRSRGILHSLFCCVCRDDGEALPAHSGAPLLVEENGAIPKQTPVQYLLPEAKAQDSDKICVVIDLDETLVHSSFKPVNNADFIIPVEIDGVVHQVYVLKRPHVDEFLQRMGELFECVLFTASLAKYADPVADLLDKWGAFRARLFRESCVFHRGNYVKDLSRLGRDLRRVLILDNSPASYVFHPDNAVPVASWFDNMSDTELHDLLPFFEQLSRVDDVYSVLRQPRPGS

[6] = growth suppression of PTEN-null colon cells, dose response, cell-based, HCT116 PTEN knockout (AID 1047); assay type: functional;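 also: HCT116 colon tumor cells with PTEN knocked out; cells exposed to compound for 60 hours before readout; potency for loss of cell viability measured by luminescence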
[7] = growth suppression of beta-catenin-knockout colon cells, dose response, cell-based, HCT116, human colon tumor (AID 1045); assay type: functional;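 also: HCT116 colon tumor cells with beta catenin knocked out; cells exposed to compound for 60 hours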
[8] = test system: Streptococcus sp. 'group A'; test: growth inhibition of control SK(-) GAS strain, dose response, counter-screen for streptokinase expression inhibitor project, luminescence, kanamycin, BacTiterGlo, confirmation (AID 1900); assay type: functional, organism-based
Streptococcus = test: Group A Streptococcus viability loss, dose response, counter-screen for streptokinase expression inhibitor project, luminescence, BacTiterGlo (AID 1915); assay type: functional, organism-based;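 also: potency for reduction of bacterial viability or growth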
cells = assay type: functional
[9] = Luminescence Cell-Based Dose Confirmation HTS to Identify Activators of 5'UTR Stem-Loop Driven Alpha-Synuclein mRNA Translation in H4 Neuroglioblastoma Cells. [Related pubchem assays: 1829 (Project Summary), 1814 (Primary HTS)]; assay type: functional
[10] = Luminescence Cell-Based Dose Response HTS to Identify Activators of Luciferase Translation or Activity in H4 […] Cells. [Related pubchem assays: 1829 (Project Summary), 1814 (Primary HTS)]; assay type: functional
H4 = test: Luminescence Cell-Based Dose Response HTS to Identify Activators of 5'UTR Stem-Loop Driven Prion Protein mRNA Translation in H4 Neuroglioblastoma Cells. [Related pubchem assays: 1829 (Project Summary), 1814 (Primary HTS)]; assay type: functional; conditions: Homo sapiens
Cytochrome P450 2D6 = Cytochrome P450 2D6 (Homo sapiens, UniProt P10635);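 also: CYP2D6 member of a cytochrome P450 panel assay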
Cytochrome P450 2D6, sequence (P10635 whole entry): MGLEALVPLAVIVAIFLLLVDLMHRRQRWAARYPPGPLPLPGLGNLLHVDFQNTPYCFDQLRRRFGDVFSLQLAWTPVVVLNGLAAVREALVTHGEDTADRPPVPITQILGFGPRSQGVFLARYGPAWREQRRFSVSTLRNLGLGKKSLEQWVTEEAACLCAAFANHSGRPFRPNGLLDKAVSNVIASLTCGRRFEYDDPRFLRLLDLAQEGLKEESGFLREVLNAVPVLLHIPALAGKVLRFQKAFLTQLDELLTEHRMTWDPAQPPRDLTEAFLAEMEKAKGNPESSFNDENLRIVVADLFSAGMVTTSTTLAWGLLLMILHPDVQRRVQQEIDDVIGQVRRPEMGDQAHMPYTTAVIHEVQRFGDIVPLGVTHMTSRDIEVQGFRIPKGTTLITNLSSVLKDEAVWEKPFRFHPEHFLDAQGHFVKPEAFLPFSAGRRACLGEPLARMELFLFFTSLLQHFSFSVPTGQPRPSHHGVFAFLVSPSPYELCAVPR

Cytochrome P450 1A2 = target: T2, Cytochrome P450 1A2 (Homo sapiens, UniProt P05177);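 also: PubChem cytochrome P450 panel assay, CYP1A2 panel member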
T2 sequence (P05177 whole entry): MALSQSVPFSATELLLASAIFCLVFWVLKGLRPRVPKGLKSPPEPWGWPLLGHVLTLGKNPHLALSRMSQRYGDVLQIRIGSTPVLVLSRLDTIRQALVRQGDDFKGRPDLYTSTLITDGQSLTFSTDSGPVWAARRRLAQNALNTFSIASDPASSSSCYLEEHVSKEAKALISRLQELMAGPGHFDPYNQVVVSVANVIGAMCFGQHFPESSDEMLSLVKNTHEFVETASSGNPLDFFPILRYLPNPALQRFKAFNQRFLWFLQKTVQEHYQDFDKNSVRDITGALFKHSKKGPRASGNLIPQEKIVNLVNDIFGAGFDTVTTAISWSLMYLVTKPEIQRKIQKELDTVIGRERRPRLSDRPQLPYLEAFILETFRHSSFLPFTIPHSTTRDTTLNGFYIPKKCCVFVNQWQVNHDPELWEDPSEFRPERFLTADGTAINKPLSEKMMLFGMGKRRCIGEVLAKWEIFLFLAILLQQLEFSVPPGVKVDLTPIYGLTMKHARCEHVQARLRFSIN

Cytochrome P450 3A4 = Cytochrome P450 3A4 (Homo sapiens, UniProt P08684);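 also: CYP3A4 tested as one member of a cytochrome P450 panel screen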
Cytochrome P450 3A4, sequence (P08684 whole entry): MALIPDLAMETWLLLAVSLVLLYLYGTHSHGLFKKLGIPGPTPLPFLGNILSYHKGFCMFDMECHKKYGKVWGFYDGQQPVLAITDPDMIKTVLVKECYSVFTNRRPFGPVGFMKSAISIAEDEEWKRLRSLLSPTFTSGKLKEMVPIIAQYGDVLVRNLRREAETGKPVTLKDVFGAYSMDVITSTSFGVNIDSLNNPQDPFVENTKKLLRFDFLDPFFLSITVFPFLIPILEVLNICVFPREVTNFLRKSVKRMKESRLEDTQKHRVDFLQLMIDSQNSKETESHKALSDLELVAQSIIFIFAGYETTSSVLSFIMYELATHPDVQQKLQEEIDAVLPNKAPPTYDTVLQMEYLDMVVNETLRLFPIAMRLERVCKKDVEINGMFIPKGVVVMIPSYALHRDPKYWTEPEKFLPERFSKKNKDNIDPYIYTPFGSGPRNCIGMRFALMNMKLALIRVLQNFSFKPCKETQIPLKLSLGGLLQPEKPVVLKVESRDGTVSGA

Cytochrome P450 2C9 = Cytochrome P450 2C9 (Homo sapiens, UniProt P11712)
Cytochrome P450 2C9, sequence (P11712 whole entry): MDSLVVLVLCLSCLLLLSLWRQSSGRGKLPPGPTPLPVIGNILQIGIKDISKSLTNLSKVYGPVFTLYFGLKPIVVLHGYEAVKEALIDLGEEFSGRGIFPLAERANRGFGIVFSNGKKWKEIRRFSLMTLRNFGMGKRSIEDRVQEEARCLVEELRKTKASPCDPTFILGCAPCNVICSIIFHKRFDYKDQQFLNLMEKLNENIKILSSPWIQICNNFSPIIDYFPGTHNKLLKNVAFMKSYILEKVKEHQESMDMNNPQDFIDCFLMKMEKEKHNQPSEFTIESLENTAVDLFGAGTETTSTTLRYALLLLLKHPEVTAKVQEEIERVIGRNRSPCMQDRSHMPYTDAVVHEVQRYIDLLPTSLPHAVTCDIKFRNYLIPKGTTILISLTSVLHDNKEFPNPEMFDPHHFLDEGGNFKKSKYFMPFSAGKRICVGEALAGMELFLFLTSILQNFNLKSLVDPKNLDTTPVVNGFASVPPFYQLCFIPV

[11] = target: T3, Polyadenylate-binding protein 1 (Homo sapiens, UniProt P11940); test: PABP1 MLLE–PAM2 interaction inhibitors, dose response, miRNA deadenylation inhibitor project, biochemical, fluorescence polarization, Cy5-PAM2 peptide, secondary (AID 602260); assay type: functional; conditions: read-out: IC50_Mean
T3 sequence (P11940 whole entry): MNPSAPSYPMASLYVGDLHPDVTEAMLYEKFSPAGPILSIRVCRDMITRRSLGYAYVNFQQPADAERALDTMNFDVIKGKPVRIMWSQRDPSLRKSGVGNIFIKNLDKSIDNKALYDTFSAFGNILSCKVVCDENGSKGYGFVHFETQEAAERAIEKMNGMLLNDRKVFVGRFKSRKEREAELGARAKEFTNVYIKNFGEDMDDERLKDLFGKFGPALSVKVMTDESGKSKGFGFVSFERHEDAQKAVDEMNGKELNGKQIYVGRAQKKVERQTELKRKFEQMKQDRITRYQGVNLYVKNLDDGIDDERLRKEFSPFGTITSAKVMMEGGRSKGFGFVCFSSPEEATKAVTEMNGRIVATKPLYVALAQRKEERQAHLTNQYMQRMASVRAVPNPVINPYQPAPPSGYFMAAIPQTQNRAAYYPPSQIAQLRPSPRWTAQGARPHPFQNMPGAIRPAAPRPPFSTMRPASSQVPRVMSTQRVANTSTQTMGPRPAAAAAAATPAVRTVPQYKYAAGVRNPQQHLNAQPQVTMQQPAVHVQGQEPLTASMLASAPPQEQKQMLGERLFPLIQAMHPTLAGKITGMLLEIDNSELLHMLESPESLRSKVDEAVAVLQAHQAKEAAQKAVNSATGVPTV

[12] = target: T3, Polyadenylate-binding protein 1; test: PABP1 MLLE–PAM2 binding inhibitor potency, dose response, biochemical, fluorescence polarization, FITC-PAM2 peptide (AID 602259); assay type: functional; conditions: read-out: IC50_Mean
[13] = target: T4, Heat shock factor protein 1 (Mus musculus, UniProt P38532); test: inhibition of MG132-induced HSE-luciferase signal, confirmation, cell-based, NIH3T3, luminescence, dose retest (AID 2382); assay type: functional;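 also: NIH3T3 fibroblasts with HSF1-driven luciferase reporter stressed by proteasome inhibitor MG132; luminescence from HSF1-driven luciferase expression after 8 hours of MG132 stress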
T4 sequence (P38532 whole entry): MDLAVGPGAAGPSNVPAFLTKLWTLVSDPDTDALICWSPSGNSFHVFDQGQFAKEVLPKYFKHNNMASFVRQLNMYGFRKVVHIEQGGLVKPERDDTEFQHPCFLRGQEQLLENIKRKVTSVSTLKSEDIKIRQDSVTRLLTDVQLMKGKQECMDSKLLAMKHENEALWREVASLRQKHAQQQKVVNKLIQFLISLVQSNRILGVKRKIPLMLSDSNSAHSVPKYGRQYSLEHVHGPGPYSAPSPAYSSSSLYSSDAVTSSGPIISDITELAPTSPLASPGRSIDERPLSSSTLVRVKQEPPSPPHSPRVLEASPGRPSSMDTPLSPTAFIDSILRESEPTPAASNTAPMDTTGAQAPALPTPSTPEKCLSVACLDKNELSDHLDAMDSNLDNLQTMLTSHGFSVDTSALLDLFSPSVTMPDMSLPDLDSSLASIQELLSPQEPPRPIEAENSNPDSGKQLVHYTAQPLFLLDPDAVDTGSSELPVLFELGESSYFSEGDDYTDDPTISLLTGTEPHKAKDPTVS

Cytochrome P450 2C19 = Cytochrome P450 2C19 (Homo sapiens, UniProt P33261); test: Cytochrome panel assay with activity outcomes. Panel member name: p450-cyp2c19 Compounds with AC50 equal or less than 10 uM are considered active; assay type: functional; conditions: read-out: AC50
Cytochrome P450 2C19, sequence (P33261 whole entry): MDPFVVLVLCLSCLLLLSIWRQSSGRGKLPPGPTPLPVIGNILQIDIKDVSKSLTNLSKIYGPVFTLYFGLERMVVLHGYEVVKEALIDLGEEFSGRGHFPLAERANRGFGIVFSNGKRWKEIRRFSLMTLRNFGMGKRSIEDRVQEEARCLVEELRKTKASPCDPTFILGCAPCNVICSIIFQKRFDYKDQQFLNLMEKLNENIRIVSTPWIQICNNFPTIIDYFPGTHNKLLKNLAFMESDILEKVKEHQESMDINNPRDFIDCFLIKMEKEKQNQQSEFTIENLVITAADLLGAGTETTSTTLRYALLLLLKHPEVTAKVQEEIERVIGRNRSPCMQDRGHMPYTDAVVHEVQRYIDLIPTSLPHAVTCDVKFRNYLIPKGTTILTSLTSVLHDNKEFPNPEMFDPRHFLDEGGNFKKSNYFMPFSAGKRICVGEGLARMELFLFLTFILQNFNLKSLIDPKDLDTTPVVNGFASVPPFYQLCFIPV

Cc1ccc(NC(=O)C2C3CCCC2C3c2ccccc2)c(C)c1 (configuration not stated)
EC50 [1]: > 120 µM (not active)
EC50 [2]: > 120 µM (not active)
EC50 [3]: > 120 µM (not active)

O=C(NCCNc1ccc([N+](=O)[O-])cc1Cl)c1ccccc1F
EC50 [1]: > 120 µM (not active)
EC50 [2]: 26.4 µM (active)
EC50 [3]: 76.3 µM (active)

CCN(CC)C(=O)[C@H]1C[C@H](CC(=O)NC/C=C(\C)CCC=C(C)C)C(=O)N2CCc3c([nH]c4cc(CCC(=O)N(C)C)ccc34)[C@]12C
AC50 [4]: 1.37 µM (active)

O=C1C=C(O)c2cccc(O)c2C1=O
IC50 [5]: 44.5 µM (active)

COC(=O)c1c(NC(=O)c2ccc(S(=O)(=O)N3CCOCC3)cc2)sc2c1CCN(C)C2
EC50 [6]: 23.8 µM (active)
EC50 [7]: 14.9 µM (active)

O=C1N=C(Nc2ccccn2)SC1Cc1ccc(Cl)cc1 (configuration not stated)
EC50 [8]: 83.8 µM (active)
EC50 (Streptococcus): > 150 µM (not active)
IC50 (cells): > 25 µM (active)

CCOC(=O)c1cnn(-c2ccc(C(C)C)cc2)c1NC(=O)C1CCC1
EC50 [9]: 13.4 µM (active)
EC50 [10]: 18.9 µM (active)
EC50 (H4): > 120 µM (not active)
AC50 (Cytochrome P450 2D6): 8.91 µM (inconclusive)
AC50 (Cytochrome P450 1A2): 14.1 µM (inconclusive)
AC50 (Cytochrome P450 3A4): 39.8 µM (inconclusive)
AC50 (Cytochrome P450 2C9): 39.8 µM (inconclusive)

Cc1cc(NC(=O)CSc2sc3c(O)cc(=O)[nH]c3c2C#N)ccc1Br
IC50 [5]: 3.74 µM (active)

CCOC(=O)c1c(NC(=O)C2(C)Cc3ccccc3C(=O)O2)sc2c1CCCC2 (configuration not stated)
IC50 [11]: > 66 µM (inactive)
IC50 [12]: > 66 µM (inactive)

CCCOC(=O)c1ccc(NC(=O)c2ccccc2OC)cc1
IC50 (cells): 11.3 µM (active)

Cc1nn(C(C)(C)C)c(OC(=O)c2ccco2)c1Sc1ccccc1
AC50 (Cytochrome P450 1A2): 14.1 µM (inconclusive)
AC50 (Cytochrome P450 3A4): 39.8 µM (inconclusive)

CCOC(=O)c1cc(-c2ccccc2)nc2nc(N3CCCCC3)sc12
EC50 [1]: 14.8 µM (active)
EC50 [2]: 24.3 µM (active)
EC50 [3]: 103 µM (active)

CCCC(=O)Nc1cccc(-c2nc3ccccc3c(=O)o2)c1
IC50 (cells): 10.4 µM (active)

Cc1onc(-c2c(F)cccc2Cl)c1C(=O)NC(=S)Nc1c(C)n(C)n(-c2ccccc2)c1=O
IC50 [11]: > 66 µM (inactive)
IC50 [12]: > 66 µM (inactive)

S=C(c1ccc(N2CCOCC2)cc1)N1CCOCC1
EC50 [13]: > 195 µM (not active)
IC50 [11]: > 66 µM (inactive)
IC50 [12]: > 66 µM (inactive)

CC1CC(C)CN(C(=O)CNS(=O)(=O)c2ccc(Br)s2)C1 (configuration not stated)
AC50 (Cytochrome P450 1A2): 15.8 µM (inconclusive)
AC50 (Cytochrome P450 3A4): 11.2 µM (inconclusive)
AC50 (Cytochrome P450 2C9): 10 µM (inconclusive)

C#CCN1C(=O)C(O)(CC(=O)c2cccc(OC)c2)c2ccccc21 (configuration not stated)
EC50 [6]: 19.2 µM (active)
EC50 [7]: 19.3 µM (active)

Cc1noc(C)c1-c1cncnc1NCCN1CCOCC1
AC50 (Cytochrome P450 2C19): 0.0398 µM (inconclusive)
AC50 (Cytochrome P450 1A2): 31.6 µM (inconclusive)

O=c1c(-c2ccccc2)nc2cnc(N3CCOCC3)nc2n1CCc1ccccc1
AC50 (Cytochrome P450 1A2): 12.6 µM (inconclusive)
AC50 (Cytochrome P450 3A4): 31.6 µM (inconclusive)

CCOC(=O)c1cc(COc2cc(Cl)cc(Cl)c2)on1
IC50 (cells): 1.97 µM (active)

O=C(CSC1=NC2(CCCCC2)N=C1c1ccccc1)Nc1ccc2c(c1)OCCO2
IC50 [11]: > 66 µM (inactive)
IC50 [12]: > 66 µM (inactive)
